Assay results reported in US11530196B2, “Pyrimidine compound acting on EGFR and ERBB2” (CHINA RESOURCES PHARMACEUTICAL HOLDINGS COMPANY LIMITED, priority 2019, dated 2022).
Where “and” joins values, the source holds several entries; their conditions need not be identical. Identical values can stand only once.

How the values were obtained:
[1] = tested on: LU0387 EGFR-H773_V774insNPH cells; test: Anti-proliferation activity test of LU-0387 cells; format: cell-based; conditions: Homo sapiens, 96 h, CTG, 4 days, read-out: Cell IC50 (anti-proliferation)
Experimental: (1) Anti-Proliferation Activity Test of LU-0387 (EGFR Exon 20 NPH Insertion Mutation) Cells
Fetal bovine serum FBS, CellTiter Glo® luminescent cell activity assay, 96-well clear flat-bottomed black-walled plate
A cell counter was used for cell counting, and cell viability was detected to ensure that the viability of each cell line was above 90%. Cell suspension was added to a 96-well plate to bring the cell density to the specified concentration and incubated overnight at 37° C., 5% CO2 and 95% humidity. The culture medium was added to the T0 plate, the CTG reagent was melted and the cell plate was equilibrated at room temperature. CTG solution was added to each well. The cell plate was vibrated to lyse the cells and the cold light values were read. The compound to be test and the control drug were diluted in a gradient to obtain a 10-fold solution. 10 μL of drug solution was added to each well of a 96-well plate that had been inoculated with cells. The incubation was continued at 37° C., 5% CO2, 95% humidity for 4 days, and CTG analysis was performed and cold light values were read separately. The data were analyzed using GraphPad Prism 5.0 software and IC50 values were calculated.
The IC50 data of the compounds of the present disclosure against EGFR exon 20 insertion mutation NPH in LU-0387 cells are shown in Table 4.

[2] = Compound stability test in plasma (human); format: in vitro ADME
Experimental: In this study, mouse, SD rat, Beagle, cynomolgus monkey and human plasma were used as materials to investigate the stability of the tested compounds in the plasma of the above five species. Propantheline, Enalapril, Bisacodyl and Procaine were used as control compounds.
The experimental conditions for the test compounds were as follows: • test concentration: 2 μM (DMSO ≤0.5%); • incubation times: 0, 10, 30, 60 and 120 minutes; • frozen plasma (from multiple species) was used in the test system; • incubation conditions: 37° C.
The mixed frozen plasma was thawed in a 37° C. water bath prior to the experiment. Plasma was centrifuged at 4000 rpm for 5 minutes and cleared if there was a clot. The pH will be adjusted to 7.4±0.1 if required.
The intermediate solution of 1 mM compound and positive control was prepared by diluting 10 mM stock solution with 90 μL of dimethyl sulfoxide. 100 μM solution was prepared by diluting 20 μL of intermediate solution (1 mM) with 180 μL of 45% methanol/water.
2 μL of 100 μM solution was added to 98 μL of blank plasma to achieve a final concentration of 2 μM (in duplicate) of the sample, and the sample was incubated in a 37° C. water bath. At each time point (0, 10, 30, 60 and 120 min), 400 μL of termination solution (200 ng/mL toluenesulfonylurea and 200 ng/mL labetalol, 50% ACN/MeOH) was added to precipitate the proteins and mixed thoroughly. […]

[3] = target: Ba/F3 EGFR-D770_N771insSVD (Homo sapiens, UniProt P00533, DUP768-770, cells depend on it); test: Anti-proliferation against Ba/F3 exon 20 insertion mutant cells (SVD); format: cell-based, mouse; conditions: CTG, 72 hours, read-out: Mutant cells IC50 (anti-proliferation)
Source text: RPMI1640 medium was purchased from Hyclone, FBS fetal bovine serum was purchased from GBICO, and trypsin-EDTA were both purchased from Giboco. DPBS was purchased from Corning, penicillin/streptomycin solution was purchased from Hyclone, and Cell-Titer Glo reagent was purchased from Promega (Cat. No. G7572). Ba/F3 EGFR-D770_N771insSVD, Ba/F3 EGFR-H773_V774insNPH, Ba/F3 EGFR-V769_D770insASV, BaF3 ERBB2 A775_G776 ins YVMA, the cell lines were constructed by Beijing Kang Yuan Bochuang Biotechnology Co., Ltd. Plate reading instrument: Envision (PerkinElmer).
Cells in logarithmic growth phase were harvested and cell counts were performed using a […]. Cell viability was detected by the Taipan Blue rejection assay. The cell concentration was adjusted; the cell suspension was added to a 96-well plate separately. Cells in 96-well plates were incubated overnight at 37° C., 5% CO2, and 95% humidity. To prepare the drug solution, 10 μL of drug solution was added to each well of the 96-well plate inoculated with cells, and three replicate wells were set up for each drug concentration. The cells in the 96-well plates added with drugs were placed at 37° C., 5% CO2, 95% humidity and continued to incubate for 72 hours, after which CTG analysis was performed and the cells were vibrated on an orbital shaker to lyse the cells. The cell plate was placed at room temperature to stabilize the cold light signal, and the cold light values were read. The data were analyzed using GraphPad Prism 7.0 software, and a nonlinear S-curve regression was used to fit the data to derive the dose-effect curve from which the IC50 values were calculated.
The IC50 of anti-proliferation activity against Ba/F3 Exon20 insertion mutant cells of the compounds of the present disclosure is shown in Table 5.
Ba/F3 exon 20 insertion mutant cells are cell lines with SVD, NPH, ASV, and YVMA insertion mutations artificially constructed using mouse B cells, and it can be seen from Table 5 that the compounds of the present disclosure have better cellular anti-proliferation activity against the […] exon 20 insertion mutations such as SVD, NPH, ASV, and YVMA, and also show better anti-proliferation activity against common exon 20 insertion mutations such as SVD mutation.

Sequence of Ba/F3 EGFR-D770_N771insSVD (P00533 with tags, fused parts or gaps DUP768-770): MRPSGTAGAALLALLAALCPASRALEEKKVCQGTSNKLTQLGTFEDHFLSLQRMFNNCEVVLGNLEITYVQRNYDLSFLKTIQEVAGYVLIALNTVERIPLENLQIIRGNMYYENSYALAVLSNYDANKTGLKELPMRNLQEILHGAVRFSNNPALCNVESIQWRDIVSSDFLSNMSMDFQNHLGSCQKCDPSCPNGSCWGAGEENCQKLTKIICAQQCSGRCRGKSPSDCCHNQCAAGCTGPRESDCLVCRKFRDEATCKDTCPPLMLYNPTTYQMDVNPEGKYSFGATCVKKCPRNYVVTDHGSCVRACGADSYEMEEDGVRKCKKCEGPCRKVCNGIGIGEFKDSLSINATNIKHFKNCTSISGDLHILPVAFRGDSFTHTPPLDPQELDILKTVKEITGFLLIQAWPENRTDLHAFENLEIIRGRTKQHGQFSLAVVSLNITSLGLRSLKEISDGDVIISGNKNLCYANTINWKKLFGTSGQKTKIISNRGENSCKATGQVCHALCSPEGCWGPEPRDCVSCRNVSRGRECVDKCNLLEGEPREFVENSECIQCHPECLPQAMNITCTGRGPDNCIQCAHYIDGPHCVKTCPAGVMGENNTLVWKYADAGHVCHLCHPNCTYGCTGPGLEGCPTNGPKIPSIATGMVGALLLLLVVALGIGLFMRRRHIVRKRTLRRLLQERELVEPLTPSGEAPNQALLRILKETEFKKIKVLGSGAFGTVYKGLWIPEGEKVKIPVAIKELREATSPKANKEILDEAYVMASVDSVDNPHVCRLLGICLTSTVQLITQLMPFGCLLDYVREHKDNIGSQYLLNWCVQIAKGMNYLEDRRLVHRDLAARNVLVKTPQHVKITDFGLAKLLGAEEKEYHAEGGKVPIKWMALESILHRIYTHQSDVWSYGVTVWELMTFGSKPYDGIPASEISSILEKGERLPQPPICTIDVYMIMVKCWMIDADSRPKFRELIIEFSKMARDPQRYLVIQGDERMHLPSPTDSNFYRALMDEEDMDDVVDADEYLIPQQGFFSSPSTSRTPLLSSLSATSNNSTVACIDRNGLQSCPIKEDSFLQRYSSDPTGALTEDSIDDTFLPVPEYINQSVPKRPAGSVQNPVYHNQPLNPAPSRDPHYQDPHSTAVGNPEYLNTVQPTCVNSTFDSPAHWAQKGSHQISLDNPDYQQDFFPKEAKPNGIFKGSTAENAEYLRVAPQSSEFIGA

IC50 [1]: 25.6 nM | In vitro plasma stability (Residual percentage) ([2]; 120 minutes, 2 μM, 37° C.): 19% | half-life at 2 µM ([2]; pH 7.4, 37° C., read-out: In vitro plasma half-life T1/2): 51.6 min | GI50 [3]: 27 nM and 24 nM
Structure (SMILES): C=CC(=O)Nc1cc(Nc2ncc(C(=O)OC(C)C)c(-c3cn(OC)c4ccccc34)n2)c(OC)cc1N(C)CCN(C)C.CS(=O)(=O)O [Compound 1]
